According to publication PMC8047731 (ACS Omega, 2021):
Blank lines part the entries; values can stand above or below the molecule they belong to.

Key:
SNM1A = biological target: T1, SNM1A (Homo sapiens, UniProt Q6PJP8); test: Gel-based secondary screen validation; assay type: biochemical; conditions: 25 and 6.25 μM compound
T1 sequence (Q6PJP8 698-1040): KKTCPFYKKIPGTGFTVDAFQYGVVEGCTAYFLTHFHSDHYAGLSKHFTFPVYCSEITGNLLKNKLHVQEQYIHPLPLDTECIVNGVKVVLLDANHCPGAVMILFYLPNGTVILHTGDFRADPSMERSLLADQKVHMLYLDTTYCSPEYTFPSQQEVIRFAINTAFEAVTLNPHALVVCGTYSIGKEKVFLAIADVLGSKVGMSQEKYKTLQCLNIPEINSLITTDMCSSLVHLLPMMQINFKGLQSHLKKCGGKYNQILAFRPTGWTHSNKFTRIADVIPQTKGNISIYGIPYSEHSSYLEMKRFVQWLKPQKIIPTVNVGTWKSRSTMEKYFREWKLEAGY

[1] = tested on: short duplex DNA substrate (EtBr-DS); test: Ethidium bromide displacement assay; assay type: binding; conditions: compound at exonuclease IC50 of SNM1A, 10 min
nuclease = conditions: cited from earlier work
[2] = biological target: T2, SNM1A exonuclease activity (Homo sapiens, UniProt Q6PJP8); test: Gel-based IC50 determination, SNM1A exonuclease activity; conditions: 0.2 nM SNM1A, 110 nM 5P-1F, 60 min, 37 °C, triplicate
T2 sequence (Q6PJP8 698-1040): T1 sequence (Q6PJP8 698-1040)

HeLa cells = test: Cisplatin potentiation assay; assay type: cell-based; conditions: 25 μM compound + […] μM cisplatin (LD10), 72 h, alamarBlue

- Assay interference in the gel-based screen (reason for exclusion) (SNM1A): internal fluorescence
Structure (SMILES): C[C@@H]1CC[C@@]23CCC4(C)[C@@](C=CC5[C@@]6(C)CCC(=O)C(C)(C)C6CC[C@]54C)(OC2=O)C3[C@H]1C (some centres unmarked) [Compound 44, 3-OXOURSAN (28-13)OLIDE]

Structure (SMILES): O=C(O[C@@H]1Cc2c(O)cc(O)cc2O[C@@H]1c1cc(O)c(=O)c2c(O)c(O)cc([C@H]3Oc4cc(O)cc(O)c4C[C@H]3OC(=O)c3cc(O)c(O)c(O)c3)c2c1)c1cc(O)c(O)c(O)c1 [Compound 40, […]]
- Displacement of ethidium bromide from DNA [1]: apparent nonspecific interactions with DNA

- Assay interference in the gel-based screen (reason for exclusion) (SNM1A): internal fluorescence
Structure (SMILES): O=C1OC2(c3ccc(O)cc3Oc3cc(O)ccc32)c2ccccc21 [Compound 54, FLUORESCEIN]

- Exonuclease IC50 [2]: nanomolar range
Structure (SMILES): O=C(O)C1=CC(=C(c2ccc(O)c(C(=O)O)c2)c2ccc(O)c(C(=O)O)c2)C=CC1=O [Compound 20, AURINTRICARBOXYLIC ACID]
- Displacement of ethidium bromide from DNA [1]: apparent nonspecific interactions with DNA
- Nuclease inhibition (nuclease): nonspecific nuclease inhibitor

Structure (SMILES): Nc1c(S(=O)(=O)O)cc(Nc2ccc(Nc3nc(Cl)nc(Nc4cccc(S(=O)(=O)O)c4)n3)c(S(=O)(=O)O)c2)c2c1C(=O)c1ccccc1C2=O [Compound 30, REACTIVE BLUE 2]
- Cell survival with sublethal cisplatin (potentiation) (HeLa cells): reduced cell survival
- Displacement of ethidium bromide from DNA [1]: apparent nonspecific interactions with DNA

Structure (SMILES): COC(=O)c1cc(O)c(=O)c2c(O)c(O)ccc2c1 [Compound 61, METHYL 7-DESHYDROXYPYROGALLIN-4-CARBOXYLATE]
- Displacement of ethidium bromide from DNA [1]: do not appear to significantly displace ethidium bromide

Structure (SMILES): O=c1cc(-c2ccc(O)c(-c3c(O)cc(O)c4c(=O)cc(-c5ccc(O)cc5)oc34)c2)oc2cc(O)cc(O)c12 [Compound 13, AMENTOFLAVONE]
- Cell survival with sublethal cisplatin (potentiation) (HeLa cells): reduced cell survival
- Displacement of ethidium bromide from DNA [1]: do not appear to significantly displace ethidium bromide
